Laboratory results as given in ChEMBL document CHEMBL1201861, “Genomics of Drug Sensitity in Cancer screening data, Wellcome Trust Sanger Institute”.

What was measured:
Assay in all cases: cells
[1] = tested on: CW-2; format: functional, cell-based, Homo sapiens; settings: Homo sapiens, CW-2;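 also: growth inhibition of CW-2 cells, read out by a cell viability assay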
Description: SANGER: Inhibition of human CW-2 cell growth in a cell viability assay.

[2] = tested on: Calu-6; format: functional, cell-based, Homo sapiens; settings: Homo sapiens, Calu-6;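 also: growth of human Calu-6 cells, read out by a cell viability assay, IC50 marking inhibition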
Description: SANGER: Inhibition of human Calu-6 cell growth in a cell viability assay.

[3] = tested on: D-502MG; format: functional, cell-based, Homo sapiens; settings: Homo sapiens, D-502MG
Description: SANGER: Inhibition of human D-502MG cell growth in a cell viability assay.

[4] = tested on: DSH1; format: functional, cell-based; settings: Homo sapiens;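 also: growth inhibition of human DSH1 cells, measured with a cell viability readout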
Description: SANGER: Inhibition of human DSH1 cell growth in a cell viability assay.

[5] = tested on: EKVX; format: functional, cell-based, Homo sapiens; settings: Homo sapiens, EKVX;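 also: growth inhibition of human EKVX cells, read out with a cell viability assay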
Description: SANGER: Inhibition of human EKVX cell growth in a cell viability assay.

[6] = tested on: EW-1; format: functional, cell-based, Homo sapiens; settings: Homo sapiens, EW-1;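 also: growth inhibition of the human EW-1 cell line, read out by a cell viability assay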
Description: SANGER: Inhibition of human EW-1 cell growth in a cell viability assay.

[7] = tested on: GCIY; format: functional, cell-based, Homo sapiens; settings: Homo sapiens, GCIY;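 also: growth inhibition of the human GCIY cell line, read out by a cell viability assay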
Description: SANGER: Inhibition of human GCIY cell growth in a cell viability assay.

[8] = tested on: GOTO; format: functional, cell-based, Homo sapiens; settings: Homo sapiens, GOTO;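 also: growth inhibition of GOTO cells, read out by a cell viability assay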
Description: SANGER: Inhibition of human GOTO cell growth in a cell viability assay.

[9] = tested on: GT3TKB; format: functional, cell-based, Homo sapiens; settings: Homo sapiens, GT3TKB;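 also: growth inhibition of the cell line, read out with a cell viability assay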
Description: SANGER: Inhibition of human GT3TKB cell growth in a cell viability assay.

[10] = tested on: HD-MY-Z; format: functional, cell-based, Homo sapiens; settings: Homo sapiens, HD-MY-Z;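 also: growth inhibition of HD-MY-Z cells, read out with a cell viability assay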
Description: SANGER: Inhibition of human HD-MY-Z cell growth in a cell viability assay.

[11] = tested on: HL-60; format: functional, cell-based, Homo sapiens; settings: Homo sapiens, HL-60;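 also: growth inhibition of human HL-60 cells, read out with a cell viability assay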
Description: SANGER: Inhibition of human HL-60 cell growth in a cell viability assay.

[12] = tested on: HOP-62; format: functional, cell-based, Homo sapiens; settings: Homo sapiens, HOP-62;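 also: cell growth inhibition determined with a viability assay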
Description: SANGER: Inhibition of human HOP-62 cell growth in a cell viability assay.

[13] = tested on: HT-144; format: functional, cell-based, Homo sapiens; settings: Homo sapiens, HT-144
Description: SANGER: Inhibition of human HT-144 cell growth in a cell viability assay.

[14] = tested on: KARPAS-299; format: functional, cell-based, Homo sapiens; settings: Homo sapiens, KARPAS-299
Description: SANGER: Inhibition of human KARPAS-299 cell growth in a cell viability assay.

[15] = tested on: KINGS-1; format: functional, cell-based, Homo sapiens; settings: Homo sapiens, KINGS-1;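 also: cell viability assay measuring suppression of KINGS-1 cell growth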
Description: SANGER: Inhibition of human KINGS-1 cell growth in a cell viability assay.

[16] = tested on: KM-H2; format: functional, cell-based, Homo sapiens; settings: Homo sapiens, KM-H2;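 also: growth inhibition of KM-H2 cells, read out by a cell viability assay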
Description: SANGER: Inhibition of human KM-H2 cell growth in a cell viability assay.

[17] = tested on: KS-1; format: functional, cell-based; settings: Homo sapiens;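 also: growth inhibition of KS-1 cells, read out with a cell viability assay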
Description: SANGER: Inhibition of human KS-1 cell growth in a cell viability assay.

[18] = tested on: KURAMOCHI; format: functional, cell-based, Homo sapiens; settings: Homo sapiens, KURAMOCHI;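 also: growth inhibition of KURAMOCHI cells, read out with a cell viability assay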
Description: SANGER: Inhibition of human KURAMOCHI cell growth in a cell viability assay.

[19] = tested on: LB2241-RCC; format: functional, cell-based, Homo sapiens; settings: Homo sapiens, LB2241-RCC;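 also: cell viability assay measuring how strongly the cultured human renal carcinoma line is prevented from growing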
Description: SANGER: Inhibition of human LB2241-RCC cell growth in a cell viability assay.

[20] = tested on: LB2518-MEL; format: functional, cell-based; settings: Homo sapiens;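 also: growth inhibition of human LB2518-MEL cells, measured with a cell viability assay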
Description: SANGER: Inhibition of human LB2518-MEL cell growth in a cell viability assay.

[21] = tested on: LB996-RCC; format: functional, cell-based, Homo sapiens; settings: Homo sapiens, LB996-RCC
Description: SANGER: Inhibition of human LB996-RCC cell growth in a cell viability assay.

[22] = tested on: LNCaP-Clone-FGC; format: functional, cell-based, Homo sapiens; settings: Homo sapiens, LNCaP-Clone-FGC
Description: SANGER: Inhibition of human LNCaP-Clone-FGC cell growth in a cell viability assay.

[23] = tested on: MHH-PREB-1; format: functional, cell-based, Homo sapiens; settings: Homo sapiens, MHH-PREB-1;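 also: cell viability assay measuring inhibition of proliferation of human MHH-PREB-1 cells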
Description: SANGER: Inhibition of human MHH-PREB-1 cell growth in a cell viability assay.

[24] = tested on: MLMA; format: functional, cell-based, Homo sapiens; settings: Homo sapiens, MLMA;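 also: growth inhibition of MLMA cells (human), determined through a cell viability readout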
Description: SANGER: Inhibition of human MLMA cell growth in a cell viability assay.

[25] = tested on: MN-60; format: functional, cell-based, Homo sapiens; settings: Homo sapiens, MN-60;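 also: growth inhibition of the MN-60 cell line, determined with a cell viability assay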
Description: SANGER: Inhibition of human MN-60 cell growth in a cell viability assay.

[26] = tested on: NB13; format: functional, cell-based, Homo sapiens; settings: Homo sapiens, NB13;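 also: cell viability readout measuring growth inhibition of human NB13 cells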
Description: SANGER: Inhibition of human NB13 cell growth in a cell viability assay.

[27] = tested on: NCI-H1304; format: functional, cell-based, Homo sapiens; settings: Homo sapiens, NCI-H1304;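 also: growth inhibition of the cancer cell line, measured in a cell viability assay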
Description: SANGER: Inhibition of human NCI-H1304 cell growth in a cell viability assay.

[28] = tested on: NCI-H1581; format: functional, cell-based, Homo sapiens; settings: Homo sapiens, NCI-H1581;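 also: cell growth inhibition read out by a viability assay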
Description: SANGER: Inhibition of human NCI-H1581 cell growth in a cell viability assay.

[29] = tested on: NCI-H1838; format: functional, cell-based, Homo sapiens; settings: Homo sapiens, NCI-H1838;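 also: growth inhibition of NCI-H1838 cells, determined with a cell viability readout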
Description: SANGER: Inhibition of human NCI-H1838 cell growth in a cell viability assay.

[30] = tested on: NCI-H2126; format: functional, cell-based, Homo sapiens; settings: Homo sapiens, NCI-H2126;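 also: growth inhibition of the cancer cell line, determined with a cell viability readout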
Description: SANGER: Inhibition of human NCI-H2126 cell growth in a cell viability assay.

[31] = tested on: NCI-H446; format: functional, cell-based, Homo sapiens; settings: Homo sapiens, NCI-H446;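 also: growth inhibition of NCI-H446 cells determined by a cell viability assay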
Description: SANGER: Inhibition of human NCI-H446 cell growth in a cell viability assay.

[32] = tested on: NCI-H747; format: functional, cell-based, Homo sapiens; settings: Homo sapiens, NCI-H747;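 also: growth inhibition of human NCI-H747 cells, read out by a cell viability assay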
Description: SANGER: Inhibition of human NCI-H747 cell growth in a cell viability assay.

[33] = tested on: NKM-1; format: functional, cell-based, Homo sapiens; settings: Homo sapiens, NKM-1;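 also: growth inhibition of NKM-1 cells, read out with a cell viability assay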
Description: SANGER: Inhibition of human NKM-1 cell growth in a cell viability assay.

[34] = tested on: NMC-G1; format: functional, cell-based, Homo sapiens; settings: Homo sapiens, NMC-G1;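 also: growth inhibition of the NMC-G1 cell line, measured with a cell viability read-out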
Description: SANGER: Inhibition of human NMC-G1 cell growth in a cell viability assay.

[35] = tested on: NOMO-1; format: functional, cell-based, Homo sapiens; settings: Homo sapiens, NOMO-1;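 also: growth inhibition of human NOMO-1 cells measured by a cell viability assay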
Description: SANGER: Inhibition of human NOMO-1 cell growth in a cell viability assay.

[36] = tested on: OMC-1; format: functional, cell-based, Homo sapiens; settings: Homo sapiens, OMC-1;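 also: growth inhibition of the OMC-1 cell line, measured by a cell viability assay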
Description: SANGER: Inhibition of human OMC-1 cell growth in a cell viability assay.

[37] = tested on: OS-RC-2; format: functional, cell-based, Homo sapiens; settings: Homo sapiens, OS-RC-2;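 also: growth inhibition of human OS-RC-2 cells, measured by a cell viability assay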
Description: SANGER: Inhibition of human OS-RC-2 cell growth in a cell viability assay.

[38] = tested on: RPMI-8226; format: functional, cell-based, Homo sapiens; settings: Homo sapiens, RPMI-8226
Description: SANGER: Inhibition of human RPMI-8226 cell growth in a cell viability assay.

[39] = tested on: SK-LMS-1; format: functional, cell-based, Homo sapiens; settings: Homo sapiens, SK-LMS-1;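 also: growth inhibition of human SK-LMS-1 cells, read out with a cell viability assay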
Description: SANGER: Inhibition of human SK-LMS-1 cell growth in a cell viability assay.

[40] = tested on: SK-UT-1; format: functional, cell-based, Homo sapiens; settings: Homo sapiens, SK-UT-1;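 also: growth inhibition of SK-UT-1 cells, measured by a cell viability assay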
Description: SANGER: Inhibition of human SK-UT-1 cell growth in a cell viability assay.

[41] = tested on: TE-1; format: functional, cell-based, Homo sapiens; settings: Homo sapiens, TE-1;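 also: growth inhibition of the human TE-1 cell line, read out with a cell viability assay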
Description: SANGER: Inhibition of human TE-1 cell growth in a cell viability assay.

[42] = tested on: A253 cell line; format: functional, cell-based, Homo sapiens; settings: Homo sapiens, A253;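 also: growth inhibition of A253 cells, read out with a cell viability assay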
Description: SANGER: Inhibition of human A253 cell growth in a cell viability assay.

[43] = tested on: A3-KAW; format: functional, cell-based, Homo sapiens; settings: Homo sapiens, A3-KAW;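 also: growth inhibition of human A3-KAW cells, read out with a cell viability assay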
Description: SANGER: Inhibition of human A3-KAW cell growth in a cell viability assay.

[44] = tested on: ALL-PO; format: functional, cell-based, Homo sapiens; settings: Homo sapiens, ALL-PO;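 also: growth inhibition of ALL-PO cells, read out by a cell viability assay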
Description: SANGER: Inhibition of human ALL-PO cell growth in a cell viability assay.

[45] = tested on: AM-38; format: functional, cell-based, Homo sapiens; settings: Homo sapiens, AM-38;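 also: growth inhibition of AM-38 cells of human origin, read out by a cell viability assay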
Description: SANGER: Inhibition of human AM-38 cell growth in a cell viability assay.

[46] = tested on: TE-6; format: functional, cell-based, Homo sapiens; settings: Homo sapiens, TE-6;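 also: growth inhibition of TE-6 cells, read out with a cell viability assay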
Description: SANGER: Inhibition of human TE-6 cell growth in a cell viability assay.

[47] = tested on: TGW; format: functional, cell-based, Homo sapiens; settings: Homo sapiens, TGW;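 also: growth inhibition of human TGW cells, read out with a cell viability assay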
Description: SANGER: Inhibition of human TGW cell growth in a cell viability assay.

[48] = tested on: COLO-320-HSR; format: functional, cell-based, Homo sapiens; settings: Homo sapiens, COLO-320-HSR;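 also: growth inhibition of COLO-320-HSR cells, determined with a cell viability assay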
Description: SANGER: Inhibition of human COLO-320-HSR cell growth in a cell viability assay.

[49] = tested on: HCE-4; format: functional, cell-based; settings: Homo sapiens;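 also: cell viability assay measuring inhibition of growth in the human HCE-4 cell line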
Description: SANGER: Inhibition of human HCE-4 cell growth in a cell viability assay.

[50] = tested on: SW982; format: functional, cell-based; settings: Homo sapiens;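 also: growth inhibition of SW982 cells, read out with a cell viability assay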
Description: SANGER: Inhibition of human SW982 cell growth in a cell viability assay.

For `Nc1ccccc1NC(=O)c1ccc(CNC(=O)OCc2cccnc2)cc1` [ENTINOSTAT], the IC50 [1] was 658 nM, the IC50 [2] was > 5000 nM and the IC50 [3] was > 5000 nM. For the same compound, the IC50 [4] was 287 nM, the IC50 [5] was > 5000 nM and the IC50 [6] was 2770 nM. For the same compound, the IC50 [7] was > 5000 nM, the IC50 [8] was 951 nM and the IC50 [9] was 4330 nM. For the same compound, the IC50 [10] was 1750 nM, the IC50 [11] was 543 nM and the IC50 [12] was 484 nM. It also gave an IC50 [13] of 303 nM, an IC50 [14] of 585 nM and an IC50 [15] of 4310 nM. For the same compound, the IC50 [16] was 1570 nM, the IC50 [17] was 881 nM and the IC50 [18] was 1770 nM. The IC50 [19] was 1290 nM, the IC50 [20] was 933 nM and the IC50 [21] was 1470 nM. The IC50 [22] was > 5000 nM, the IC50 [23] was 607 nM and the IC50 [24] was 1880 nM. For the same compound, the IC50 [25] was 4110 nM, the IC50 [26] was 668 nM and the IC50 [27] was 3010 nM. The IC50 [28] was > 5000 nM, the IC50 [29] was > 5000 nM and the IC50 [30] was > 5000 nM. The IC50 [31] was > 5000 nM, the IC50 [32] was 3050 nM and the IC50 [33] was 109 nM. For the same compound, the IC50 [34] was 404 nM, the IC50 [35] was 811 nM and the IC50 [36] was > 5000 nM. The IC50 [37] was 968 nM, the IC50 [38] was 3140 nM and the IC50 [39] was > 5000 nM. For the same compound, the IC50 [40] was 1790 nM, the IC50 [41] was 553 nM and the IC50 [42] was > 5000 nM. The IC50 [43] was 176 nM, the IC50 [44] was 63.6 nM and the IC50 [45] was > 5000 nM. For the same compound, the IC50 [46] was > 5000 nM, the IC50 [47] was 1080 nM and the IC50 [48] was 2860 nM.

With `NC(=O)Nc1cc(-c2cccc(F)c2)sc1C(=O)N[C@H]1CCCNC1` [AZD-7762] the IC50 [1] was > 2000 nM, the IC50 [2] was 1410 nM and the IC50 [3] was > 2000 nM. For the same compound, the IC50 [4] was 1690 nM, the IC50 [5] was > 2000 nM and the IC50 [6] was 189 nM. For the same compound, the IC50 [7] was 1390 nM, the IC50 [8] was 31.2 nM and the IC50 [9] was 1490 nM. It also gave an IC50 [49] of 970 nM, an IC50 [10] of 62.5 nM and an IC50 [11] of 774 nM. For the same compound, the IC50 [12] was 726 nM, the IC50 [13] was 338 nM and the IC50 [14] was > 2000 nM. For the same compound, the IC50 [15] was 1420 nM, the IC50 [16] was 1220 nM and the IC50 [17] was 466 nM. For the same compound, the IC50 [18] was > 2000 nM, the IC50 [19] was 61 nM and the IC50 [20] was > 2000 nM. The IC50 [22] was 1440 nM, the IC50 [23] was 34.4 nM and the IC50 [24] was 28.5 nM. The IC50 [25] was 721 nM, the IC50 [26] was 537 nM and the IC50 [27] was > 2000 nM. The IC50 [28] was > 2000 nM, the IC50 [29] was > 2000 nM and the IC50 [30] was > 2000 nM. The IC50 [31] was 748 nM, the IC50 [32] was > 2000 nM and the IC50 [33] was < 7.81 nM. It also gave an IC50 [34] of 986 nM, an IC50 [35] of 61.2 nM and an IC50 [36] of 575 nM. For the same compound, the IC50 [37] was 620 nM, the IC50 [38] was 175 nM and the IC50 [39] was > 2000 nM. It also gave an IC50 [40] of 186 nM, an IC50 [50] of 784 nM and an IC50 [41] of 1210 nM. For the same compound, the IC50 [43] was 88.1 nM, the IC50 [44] was 242 nM and the IC50 [45] was > 2000 nM. For the same compound, the IC50 [46] was > 2000 nM and the IC50 [48] was 1000 nM.

For `CC1=C(/C=C/C(C)=C/C=C/C(C)=C/C(=O)O)C(C)(C)CCC1` [TRETINOIN], the IC50 [1] was > 10000 nM, the IC50 [2] was > 10000 nM and the IC50 [3] was > 10000 nM. The IC50 [4] was > 10000 nM, the IC50 [5] was > 10000 nM and the IC50 [6] was > 10000 nM. The IC50 [7] was > 10000 nM, the IC50 [8] was > 10000 nM and the IC50 [9] was > 10000 nM. The IC50 [49] was > 10000 nM, the IC50 [10] was > 10000 nM and the IC50 [11] was 285 nM. The IC50 [12] was > 10000 nM, the IC50 [13] was > 10000 nM and the IC50 [14] was > 10000 nM. For the same compound, the IC50 [15] was > 10000 nM, the IC50 [16] was > 10000 nM and the IC50 [17] was > 10000 nM. For the same compound, the IC50 [18] was > 10000 nM, the IC50 [19] was > 10000 nM and the IC50 [20] was > 10000 nM. The IC50 [22] was > 10000 nM, the IC50 [23] was > 10000 nM and the IC50 [24] was > 10000 nM. For the same compound, the IC50 [25] was > 10000 nM, the IC50 [26] was 257 nM and the IC50 [27] was > 10000 nM. For the same compound, the IC50 [28] was > 10000 nM, the IC50 [29] was > 10000 nM and the IC50 [30] was > 10000 nM. The IC50 [31] was > 10000 nM, the IC50 [32] was > 10000 nM and the IC50 [33] was 8410 nM. For the same compound, the IC50 [34] was > 10000 nM, the IC50 [35] was > 10000 nM and the IC50 [36] was > 10000 nM. For the same compound, the IC50 [37] was > 10000 nM, the IC50 [38] was 993 nM and the IC50 [39] was > 10000 nM. For the same compound, the IC50 [40] was > 10000 nM, the IC50 [50] was > 10000 nM and the IC50 [41] was > 10000 nM. For the same compound, the IC50 [43] was 7600 nM, the IC50 [44] was 6870 nM and the IC50 [45] was > 10000 nM. The IC50 [46] was > 10000 nM and the IC50 [48] was > 10000 nM.
